Results published in the NIST ThermoML archive (doi:10.1016/j.fluid.2007.07.059).

Key:
[1] = xn = mol fraction of the nth substance listed; details: Gas, Hot wire method
[2] = Gas, Hot wire method

CCC(C)C [2-methylbutane] + CCCCC
thermal conductivity [W/m/K], [1]
Details	100 kPa	200 kPa	500 kPa
345.26 K, x1 = 0.6232	0.01956	0.01963	0.01984
345.54 K, x1 = 0.1695	0.01924	0.01936	0.01973
346.28 K, x1 = 0.3293	0.01932	0.01941	0.0197
361.52 K, x1 = 0.3293	0.02107	0.02119	0.02156
362.08 K, x1 = 0.1695	0.02122	0.02131	0.02155
362.43 K, x1 = 0.6232	0.02163	0.02169	0.02187
378.03 K, x1 = 0.6232	0.02381	0.02382	0.02387
378.23 K, x1 = 0.1695	0.02312	0.02327	0.02372
378.57 K, x1 = 0.3293	0.02344	0.02346	0.02351
394.05 K, x1 = 0.6232	0.02586	0.02591	0.02605
394.45 K, x1 = 0.1695	0.02554	0.02558	0.02571
395.51 K, x1 = 0.3293	0.02569	0.02572	0.02578

CCCCC [pentane]
thermal conductivity [W/m/K], [2]
Details	342.97 K	366.02 K	380.86 K	407.37 K
100 kPa	0.01889	0.02169	0.02371	0.02719
200 kPa	0.01895	0.02176	0.02378	0.02728
500 kPa	0.01915	0.02198	0.02398	0.02754

CCC(C)C [2-methylbutane]
thermal conductivity [W/m/K], [2]
Details	342.97 K	352.61 K	375 K	390.75 K
100 kPa	0.01954	0.02064	0.02347	0.02574
200 kPa	0.0196	0.02071	0.02356	0.0258
500 kPa	0.01976	0.02093	0.02385	0.026
